From patent publication US20090018166A1, “New Pyridine Analogues X 161” (ASTRAZENECA AB, priority 2007, published 2009)

The molecules below were run against T1, P2Y12 receptor (Homo sapiens, UniProt Q9H244) (assay: Functional inhibition of 2-Me-S-ADP induced P2Y12 signalling (35S-GTPγS binding, membranes from P2Y12 transfected CHO-cells)). Conditions: 35S-GTPγS, EC80 of 2-methyl-thio-adenosine diphosphate, P2Y12 CHO membranes; value given in each example; read-out: GTPγS(IC50 μM).
T1 construct: expressed in transfected cells; host or cells: CHO cells (membranes)
T1 sequence (Q9H244 whole entry): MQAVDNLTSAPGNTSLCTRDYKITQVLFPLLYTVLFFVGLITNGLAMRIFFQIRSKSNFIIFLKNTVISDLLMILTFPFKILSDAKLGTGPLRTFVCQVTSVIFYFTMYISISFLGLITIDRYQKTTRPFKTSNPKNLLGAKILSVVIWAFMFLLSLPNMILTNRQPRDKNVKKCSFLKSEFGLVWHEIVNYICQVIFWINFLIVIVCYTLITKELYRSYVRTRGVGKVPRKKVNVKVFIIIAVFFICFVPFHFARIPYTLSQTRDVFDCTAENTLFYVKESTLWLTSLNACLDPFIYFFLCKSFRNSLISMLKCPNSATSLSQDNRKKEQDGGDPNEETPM
Type: biochemical
Method: Functional inhibition of- the P2Y12 receptor can be measured by in vitro assays using cell membranes from P2Y12 transfected CHO-cells, the methodology is indicated below.
Functional inhibition of 2-Me-S-ADP induced P2Y12 signalling: 5 μg of membranes were diluted in 200 μl of 200 mM NaCl, 1 mM MgCl2, 50 mM HEPES (pH 7.4), 0.01% BSA, 30 μg/ml saponin and 10 μM GDP. To this was added an EC80 concentration of agonist (2-methyl-thio-adenosine diphosphate), the required concentration of test compound and 0.1 μCi ^35S-GTPγS. The reaction was allowed to proceed at 30° C. for 45 min. Samples were then transferred on to GF/B filters using a cell harvester and washed with wash buffer (50 mM Tris (pH 7.4), 5 mM MgCl2, 50 mM NaCl). Filters were then covered with scintilant and counted for the amount of ^35S-GTPγS retained by the filter. Maximum activity was that determined in the presence of the agonist and minimum activity in the absence of the agonist following subtraction of the value determined for non-specific activity. The effect of compounds at various concentrations was plotted according to the equation
y=A+((B−A)/(1+((C/x)̂D)))
and IC50 estimated where A is the bottom plateau of the curve i.e. the final minimum y value B is the top of the plateau of the curve i.e. the final maximum y value C is the x value at the middle of the curve. This represents the log EC50 value when A+B=100 D is the slope factor. x is the original known x values. Y is the original known y values.

IC50 [µM]	SMILES
0.032	CCCC(=O)c1cc(Cl)c(N2CCC(C(=O)NS(=O)(=O)Cc3ccc(F)cc3F)CC2)nc1CN1CCCC1=O [Example 53, 1-{5-butyryl-3-chloro-6-[(2-oxopyrrolidin-1-yl)methyl]pyridin-2-yl}-N-[(2,4-difluorobenzyl)sulfonyl]piperidine-4-carboxamide]
0.938	CCCCC(=O)c1cc(Cl)c(N2CCC(C(=O)NS(=O)(=O)CC3CCCC3)CC2)nc1CN1CCCC1=O [Example 54, 1-{3-chloro-6-[(2-oxopyrrolidin-1-yl)methyl]-5-pentanoylpyridin-2-yl}-N-[(cyclopentylmethyl)sulfonyl]piperidine-4-carboxamide]
0.226	CCCCC(=O)c1cc(Cl)c(N2CCC(C(=O)NS(=O)(=O)Cc3ccc(F)cc3F)CC2)nc1CN1CCCC1=O [Example 55, 1-{3-chloro-6-[(2-oxopyrrolidin-1-yl)methyl]-5-pentanoylpyridin-2-yl}-N-[(2,4-difluorobenzyl)sulfonyl]piperidine-4-carboxamide]
0.247	CCCCC(=O)c1cc(Cl)c(N2CCC(C(=O)NS(=O)(=O)N(C)c3ccc(F)cc3)CC2)nc1CN1CCCC1=O [Example 56, 1-{3-chloro-6-[(2-oxopyrrolidin-1-yl)methyl]-5-pentanoylpyridin-2-yl}-N-{[(4-fluorophenyl)(methyl)amino]sulfonyl}piperidine-4-carboxamide]
0.079	CCCCC(=O)c1cc(Cl)c(N2CCC(C(=O)NS(=O)(=O)Cc3ccccc3)CC2)nc1CN1CCCC1=O [Example 57, N-(benzylsulfonyl)-1-{3-chloro-6-[(2-oxopyrrolidin-1-yl)methyl]-5-pentanoylpyridin-2-yl}piperidine-4-carboxamide]
0.084	N#Cc1cc(C(=O)CCC(F)(F)F)c(CN2CCCC2=O)nc1N1CCC(C(=O)NS(=O)(=O)Cc2ccccc2)CC1 [Example 58, N-(benzylsulfonyl)-1-{3-cyano-6-[(2-oxopyrrolidin-1-yl)methyl]-5-(4,4,4-trifluorobutanoyl)pyridin-2-yl}piperidine-4-carboxamide]
0.132	CCCCC(=O)c1cc(Cl)c(N2CCC(C(=O)NS(=O)(=O)Cc3ccc(Cl)cc3)CC2)nc1CN1CCCC1=O [Example 59, N-[(4-chlorobenzyl)sulfonyl]-1-{3-chloro-6-[(2-oxopyrrolidin-1-yl)methyl]-5-pentanoylpyridin-2-yl}piperidine-4-carboxamide]
0.268	CCCCC(=O)c1cc(Cl)c(N2CCC(C(=O)NS(=O)(=O)C(C)c3ccccc3)CC2)nc1CN1CCCC1=O (centres unmarked) [Example 60, 1-{3-chloro-6-[(2-oxopyrrolidin-1-yl)methyl]-5-pentanoylpyridin-2-yl}-N-[(1-phenylethyl)sulfonyl]piperidine-4-carboxamide]
0.033	CCCCC(=O)c1cc(C#N)c(N2CCC(C(=O)NS(=O)(=O)C(C)c3ccccc3)CC2)nc1CN1CCCC1=O (centres unmarked) [Example 61, 1-{3-cyano-6-[(2-oxopyrrolidin-1-yl)methyl]-5-pentanoylpyridin-2-yl}-N-[(1-phenylethyl)sulfonyl]piperidine-4-carboxamide]
0.03	CCc1cnc(-c2cc(C#N)c(N3CCC(C(=O)NS(=O)(=O)N(C)c4ccc(F)cc4)CC3)nc2CN2CCCC2=O)o1 [Example 62, 1-{3-cyano-5-(5-ethyl-1,3-oxazol-2-yl)-6-[(2-oxopyrrolidin-1-yl)methyl]pyridin-2-yl}-N-{[(4-fluorophenyl)(methyl)amino]sulfonyl}piperidine-4-carboxamide]
0.021	CCc1cnc(-c2cc(C#N)c(N3CCC(C(=O)NS(=O)(=O)Cc4ccccc4)CC3)nc2CN2CCCC2=O)o1 [Example 63, N-(benzylsulfonyl)-1-{3-cyano-5-(5-ethyl-1,3-oxazol-2-yl)-6-[(2-oxopyrrolidin-1-yl)methyl]pyridin-2-yl}piperidine-4-carboxamide]
0.45	CCc1cnc(-c2cc(Cl)c(N3CCC(C(=O)NS(=O)(=O)N(C)c4ccc(F)cc4)CC3)nc2CN2CCCC2=O)o1 [Example 64, 1-{3-chloro-5-(5-ethyl-1,3-oxazol-2-yl)-6-[(2-oxopyrrolidin-1-yl)methyl]pyridin-2-yl}-N-{[(4-fluorophenyl)(methyl)amino]sulfonyl}piperidine-4-carboxamide]
0.17	CCc1cnc(-c2cc(Cl)c(N3CCC(C(=O)NS(=O)(=O)Cc4ccccc4)CC3)nc2CN2CCCC2=O)o1 [Example 65, N-(benzylsulfonyl)-1-{3-chloro-5-(5-ethyl-1,3-oxazol-2-yl)-6-[(2-oxopyrrolidin-1-yl)methyl]pyridin-2-yl}piperidine-4-carboxamide]
0.252	CCCC(=O)c1cc(Cl)c(N2CCC(C(=O)NS(=O)(=O)Cc3ccccc3)CC2)nc1CN1CCCCC1=O [Example 66, N-(benzylsulfonyl)-1-{5-butyryl-3-chloro-6-[(2-oxopiperidin-1-yl)methyl]pyridin-2-yl}piperidine-4-carboxamide]
0.445	CCCC(=O)c1cc(Cl)c(N2CCC(C(=O)NS(=O)(=O)N(C)c3ccc(F)cc3)CC2)nc1CN1CCCCC1=O [Example 67, 1-{5-Butyryl-3-chloro-6-[(2-oxopiperidin-1-yl)methyl]pyridin-2-yl}-N-{[(4-fluorophenyl)(methyl)amino]sulfonyl}piperidine-4-carboxamide]
3.67	CCCC(=O)c1cc(Cl)c(N2CCC(C(=O)N(C)S(=O)(=O)N(C)c3ccc(F)cc3)CC2)nc1CN1CCCC1=O [Example 69, 1-{5-Butyryl-3-chloro-6-[(2-oxopyrrolidin-1-yl)methyl]pyridin-2-yl}-N-{[(4-fluorophenyl)(methyl)amino]sulfonyl}-N-methylpiperidine-4-carboxamide]
0.903	CCCC(=O)c1cc(C#N)c(N2CCC(C(=O)N(C)S(=O)(=O)CC3CCCC3)CC2)nc1CN1CCCC1=O [Example 70, 1-{5-Butyryl-3-cyano-6-[(2-oxopyrrolidin-1-yl)methyl]pyridin-2-yl}-N-[(cyclopentylmethyl)sulfonyl]-N-methylpiperidine-4-carboxamide]
